# Data published in BindingDB's records for doi:10.1016/j.bmcl.2018.06.027 (Chinese Academy of Science, 2018).
# Assay: Inhibition of HIV1 3B protease infected in human MT4 cells assessed as protection from virus induced cytopathogenicity measured after 5 days post infection by MTT assay
row,EC50,Structure (SMILES)
1,170 nM,CC(C)[C@H](NC(=O)N(C)Cc1c[se]c(-c2ccccc2)n1)C(=O)N[C@@H](Cc1ccccc1)C[C@H](O)[C@H](Cc1ccccc1)NC(=O)OCc1cncs1
2,550 nM,CC(C)c1nc(CN(C)C(=O)N[C@H](C(=O)N[C@@H](Cc2ccccc2)C[C@H](O)[C@H](Cc2ccccc2)NC(=O)OCc2cncs2)C(C)C)c[se]1
